Structures can show the parent of a compound that is named as a salt. Where two headings read alike, the source gives them in different places.

The term IC20 denotes the concentration at which the effect reaches the 20% level. Read a low IC20 as an effect from little substance.

In test [1] the test system is PC3. The conditions noted are these: PC3 compared to HEKsst2; cited from earlier work. The text has this: The radiosensitivity expressed as SF after external X-ray irradiation is similar for the cell lines HEKsst2 and PC3 (Figure 4). […] One exception is the dose point at 0.6 Gy X-rays for not stimulated vs. stimulated PC3 cells. […] Whereas the radiosensitivity of non-stimulated HEK ...

In another test the test system is HEKsst2. The experiment in a line: Chemotoxicity, colony formation assay (CFA), HEKsst2. The format is cell-based. The conditions noted are these: for IC50: read-out: half maximum inhibitor concentrations (IC50). The protocol:
(§1) HEK293 cells were obtained from the German Resource Center for Biological Material (DSMZ, Braunschweig, Germany) and grown in Dulbecco’s modified Eagle´s medium supplemented with 10% fetal calf serum (FCS) in a humidified atmosphere containing 5% CO2. Cells were transfected with plasmid, encoding murine HA-tagged SSTR2 receptors using lipofectamine according to the manufacturing instructions (Thermofisher, Darmstadt, Germany). Stable transfectants were selected in the presence of 500 µg/mL G-418 and characterized using radioligand binding assays, Western blot analyses, surface ELISA assays and immunocytochemistry as described previously. Non-transfected HEK293 cells were maintained under equal conditions as HEKsst2 except for the addition of G-418. In the following, HEK293 cells and SSTR2 transfected HEK293 cells are termed as HEK and HEKsst2, respectively. The human prostate carcinoma cell line PC3 (ATCC®, Manassas, VA, USA) was cultured in a RPMI medium with 10% (v/v) FCS and 1% (v/v) non-essential amino acids (NEA). […] The culture medium of each cell line was renewed every 2–3 days. Via a PCR test, each cell line is proven to be free of mycoplasmas.
(§2) HEKsst2 and PC3 were plated in T75 flasks on day zero. […] Cells were incubated in DMEM (HEKsst2) or an RPMI 1640 (PC3) nutrient-deficient medium (lacking medium additives and FCS) until day three at 37 °C. For a further two days, HEKsst2 and PC3 were incubated in a full medium (with medium additives and FCS). On day five, cells were trypsinized and plated for the CFAs.
(§3) To determine the radiosensitivity and radiotoxicity, the clonogene cell survival was analyzed. Colony formation assays were performed as described earlier. […] Briefly, after detaching the treated cells, an aliquot of the cell suspension per dose point was distributed in T25 culture flasks for the colony formation test and is placed in an incubator for 7 (HEKsst2) or 10 days (PC3). To stop colony formation, the cells were fixed with ethanol 80% (v/v) followed by staining with crystal violet solution. The colony counting was carried out under a microscope (25× magnification). Colonies of more than 50 cells were scored as survivors. The plating efficiency (PE) and the survival rate (survival fraction SF) were calculated for irradiated and unirradiated cells based on the number of seeded cells.
(§4) To examine the statistical significance, an unpaired student’s t-test was used. A difference between two independent samples is significant if the probability of error p ≤ 0.05. For the statistical evaluation, MS Office Excel was used. […]

The test system of test [2] is PC3. In words: Chemotoxicity, colony formation assay (CFA), PC3. It counts as cell-based, human. The note with it: for Survival Fraction: day one to three in deficient RPMI 1640, 2 days full medium, CFA, ± SD; for IC50: Homo sapiens, PC-3. The protocol: as §1, §2, §3, §4
Test [3] deals with cell lines HEKsst2 and PC3. The experiment in a line: IC20/IC40 of single epidrugs by colony formation assay, HEKsst2 and PC3. It counts as cell-based. The procedure:
as §2
To determine the radiosensitivity and radiotoxicity, the clonogene cell survival was analyzed. Colony formation assays were performed as described earlier. The following steps have been done for each of the treatment procedures. Briefly, after detaching the treated cells, an aliquot of the cell suspension per dose point was distributed in T25 culture flasks for the colony formation test and is placed in an incubator for 7 (HEKsst2) or 10 days (PC3). To stop colony formation, the cells were fixed with ethanol 80% (v/v) followed by staining with crystal violet solution. The colony counting was carried out under a microscope (25× magnification). Colonies of more than 50 cells were scored as survivors. The plating efficiency (PE) and the survival rate (survival fraction SF) were calculated for irradiated and unirradiated cells based on the number of seeded cells.
To determine the Bmax values and the Kd, the GraphPad Prism 9.0 software was used. Confidence Intervals (CI) express a 95% likelihood of the nonlinear fit.

Test [4] relates to Neuroendocrine Tumor Cells. More on the design: method as in PMID 30796167. The conditions noted are these: 5-fluorouracil in combination with decitabine or tacedinaline; cited from earlier work.
For test [5], the system named is relapsed or refractory neuroblastoma. More on the design: method as in PMID 34270348. The note with it: I-131-MIBG in combination with vorinostat, phase II; cited from earlier work. The text has this:
An overview of studies investigating the synergistic improvement of cancer therapy using HDACi in clinical trials is given by Hontecillas-Prieto et al..

Details of test [6]: method as in PMID 25600060. The note with it: fractionated external radiation; cited from earlier work.

On to `Nc1ncn([C@H]2C[C@H](O)[C@@H](CO)O2)c(=O)n1` [5-aza-dC, 5-aza-2′-deoxycytidine], for which the “survival of 5-aza-dC treated cells” value with PC3 [1] is recorded as “lower survival”. Besides, the “Survival Fraction” value in the test on HEKsst2 (0.01 µM 5-aza-dC, added day one to day three in nutrient-deficient DMEM, then 2 days full medium, CFA day five, mean ± SD, three independent trials in triplicate) worked out at 97.9 ± 1.8%; with HEKsst2 (0.05 µM 5-aza-dC, day one to three in deficient medium, 2 days full medium, CFA, ± SD) it was 118.0 ± 31%; in the test with HEKsst2 (0.1 µM 5-aza-dC, day one to three in deficient medium, 2 days full medium, CFA, ± SD) it was 83.2 ± 4.8%; in the test with HEKsst2 (0.5 µM 5-aza-dC, day one to three in deficient medium, 2 days full medium, CFA, ± SD), 96.6 ± 13.2%; in the test on HEKsst2 (1.0 µM 5-aza-dC, day one to three in deficient medium, 2 days full medium, CFA, ± SD) it was 93.7 ± 1.3%; in the test on HEKsst2 (5.0 µM 5-aza-dC, day one to three in deficient medium, 2 days full medium, CFA, ± SD), 42.3 ± 4.8%. Besides, the “Survival Fraction” value came to 18.6 ± 0.8% in the test on HEKsst2 (10 µM 5-aza-dC, day one to three in deficient medium, 2 days full medium, CFA, ± SD); 1.7 ± 0.4% with HEKsst2 (25 µM 5-aza-dC, day one to three in deficient medium, 2 days full medium, CFA, ± SD); 67.1 ± 3.3% in the test with PC3 [2] (0.01 µM 5-aza-dC); 52.1 ± 19.0% in the test with PC3 [2] (0.05 µM 5-aza-dC); 69.4 ± 2.1% in the test on PC3 [2] (0.1 µM 5-aza-dC); 41.6 ± 1.8% in the test with PC3 [2] (0.5 µM 5-aza-dC). For the same molecule, the “Survival Fraction” value with PC3 [2] (1.0 µM 5-aza-dC) was 24.9 ± 2.0%; in the test with PC3 [2] (5.0 µM 5-aza-dC), 27.5 ± 3.2%; with PC3 [2] (10 µM 5-aza-dC), 9.4 ± 0.3%; in the test on PC3 [2] (25 µM 5-aza-dC), 1.9 ± 0.02%. Besides, the IC50 came to 3.9 µM with HEKsst2 (5-aza-dC as single epidrug, HEKsst2, CFA) and 0.3 µM with PC3 [2]. Also, it took 0.25 µM to reach the 20% level in test [3] (5-aza-dC, value used for both HEKsst2 and PC3, CFA) (IC20).

With `O=c1[nH]cc(F)c(=O)[nH]1` [5-fluorouracil], in test [4], the radiosensitization entry is given as “significant effects on radiosensitization”.

On to `O=C(CCCCCCC(=O)Nc1ccccc1)NO` [vorinostat], for which the radiation sensitizing result in test [5] is “beneficial radiation sensitizing properties”.

`CCCC(CCC)C(=O)O` [VPA, valproic acid sodium salt]: the Survival Fraction in the test with HEKsst2 (0.5 mM VPA, day one to three in deficient medium, 2 days full medium, CFA, ± SD) is given as 78.7 ± 10.8%; in the test on HEKsst2 (1.0 mM VPA, day one to three in deficient medium, 2 days full medium, CFA, ± SD), 67.5 ± 15.9%; in the test with HEKsst2 (2.5 mM VPA, day one to three in deficient medium, 2 days full medium, CFA, ± SD), 18.5 ± 2.2%; with HEKsst2 (5.0 mM VPA, day one to three in deficient medium, 2 days full medium, CFA, ± SD), 21.0 ± 5.1%; in the test with HEKsst2 (10 mM VPA, day one to three in deficient medium, 2 days full medium, CFA, ± SD), 53.5 ± 5.8%; with HEKsst2 (25 mM VPA, day one to three in deficient medium, 2 days full medium, CFA, ± SD), 8.0 ± 0.8%. Also, the Survival Fraction in the test on PC3 [2] (0.1 mM VPA) is given as 95.6 ± 4.5%; in the test on PC3 [2] (0.5 mM VPA), 95.6 ± 2.3%; with PC3 [2] (1.0 mM VPA), 72.6 ± 11.6%; in the test on PC3 [2] (2.5 mM VPA) it was 69.4 ± 6.0%; with PC3 [2] (5.0 mM VPA), 35.1 ± 4.6%; in the test with PC3 [2] (10 mM VPA), 24.0 ± 1.2%. In addition, the results for the Survival Fraction in the test with PC3 [2] (25 mM VPA) and in the test on PC3 [2] (50 mM VPA) were 1.2 ± 1.1% and 1.7 ± 1.1%, respectively. The figures for the IC50 with HEKsst2 and with PC3 [2] (read-out: IC50) were 1850 µM and 3900 µM, respectively. This molecule had an IC20 in test [3] of 600 µM. Besides, the IC40 in test [3] (VPA, value used for both HEKsst2 and PC3, CFA) was found to be 1000 µM. Besides, the radiosensitization entry in test [6] was “radiosensitization effect”.

The record behind these values is publication PMC9140012, “Epigenetic-Like Stimulation of Receptor Expression in SSTR2 Transfected HEK293 Cells as a New Therapeutic Strategy” (Cancers, 2022).
